Results reported in US12006527B2, “Coryneform bacterium transformant and method for producing 2-phenylethanol using same” (Research Institute of Innovative Technology for the Earth, priority 2018, dated 2024).
“Also recorded” adds a separate entry of the source.

How the values were obtained:
Experiment in all cases: Growth inhibition by 2-phenylethanol in aerobic culture (OD610)
Type in all cases: cell-based
[1] = test system: Corynebacterium glutamicum R; settings: aerobic shaking culture 33° C., A-liquid medium
Procedure: Tests regarding growth inhibition by 2-phenylethanol in aerobic culture were carried out on Corynebacterium glutamicum, Escherichia coli, Pseudomonas putida, and Kluyveromyces marxianus. Corynebacterium glutamicum R was applied to an A-agar plate (the same as that described above), and was left to stand in a dark place at 33° C. for 15 hours. One platinum loop of Corynebacterium glutamicum R grown on the plate described above was inoculated in a test tube having therein 10 ml of the A-liquid medium, and aerobic shaking culture was carried out at 33° C. for 13 hours. Corynebacterium glutamicum R grown under the above-described conditions was inoculated in 100 ml of the A-liquid medium (the same as that described above) so that the initial bacterial cell concentration OD610=0.05 was achieved. Simultaneously, 2-phenylethanol was added so that the final concentrations thereof became 0, 10, 20, 30, 40, and 50 mM, and aerobic shaking culture was carried out at 33° C. The growth of bacterial cells was determined by measuring the absorbance of OD610.

Escherichia coli MG1655 = settings: aerobic shaking culture, LB-liquid medium
Procedure: Tests regarding growth inhibition by 2-phenylethanol in aerobic culture were carried out on Corynebacterium glutamicum, Escherichia coli, Pseudomonas putida, and Kluyveromyces marxianus. Escherichia coli MG1655 was applied to an LB-agar plate [containing 1% polypeptone, 0.5% yeast extract, 0.5% sodium chloride, and 1.5% agar], and was left to stand at 37° C. for 15 hours in a dark place. One platinum loop of Escherichia coli MG1655 grown on the plate described above was inoculated in a test tube having therein 10 ml of an LB-liquid medium [containing 1% polypeptone, 0.5% yeast extract, and 0.5% sodium chloride], and was subjected to aerobic shaking culture at 37° C. for 13 hours. Escherichia coli MG1655 grown under the above-described conditions was inoculated in 100 ml of the LB-liquid medium so that the initial bacterial cell concentration OD610=0.05 was achieved. Simultaneously, 2-phenylethanol was added so that the final concentrations thereof became 0, 10, 20, 30, 40, and 50 mM, and aerobic shaking culture was carried out at 33° C. The growth of bacterial cells was determined by measuring the absorbance of OD610.

Pseudomonas putida S12 = settings: aerobic shaking culture 30° C., LB(+glucose)-liquid medium
Procedure: Tests regarding growth inhibition by 2-phenylethanol in aerobic culture were carried out on Corynebacterium glutamicum, Escherichia coli, Pseudomonas putida, and Kluyveromyces marxianus. Pseudomonas putida S12 was applied to an LB-agar plate [containing 1% polypeptone, 0.5% yeast extract, 0.5% sodium chloride, and 1.5% agar], and was left to stand at 30° C. for 15 hours in a dark place. One platinum loop of Pseudomonas putida S12 grown on the plate described above was inoculated in a test tube having therein 10 ml of an LB(+glucose)-liquid medium [containing 1% polypeptone, 0.5% yeast extract, 0.5% sodium chloride, and 0.4% glucose], and was subjected to aerobic shaking culture at 33° C. for 13 hours. The Pseudomonas putida S12 strain grown under the above-described conditions was inoculated in 100 ml of the LB(+glucose)-liquid medium so that the initial bacterial cell concentration OD610=0.05 was achieved. Simultaneously, 2-phenylethanol was added so that the final concentrations thereof became 0, 10, 20, 30, 40, and 50 mM, and aerobic shaking culture was carried out at 30° C. The growth of bacterial cells was determined by measuring the absorbance of OD610.

Kluyveromyces marxianus = settings: aerobic shaking culture 40° C., YPD-liquid medium
Procedure: Tests regarding growth inhibition by 2-phenylethanol in aerobic culture were carried out on Corynebacterium glutamicum, Escherichia coli, Pseudomonas putida, and Kluyveromyces marxianus. Further, Kluyveromyces marxianus was applied to a YPD-agar plate [containing 2% polypeptone, 1% yeast extract, 2% glucose, and 1.5% agar], and was left to stand at 30° C. for 15 hours in a dark place. One platinum loop of Kluyveromyces marxianus grown on the plate described above was inoculated in a test tube having therein 10 ml of a YPD-liquid medium [containing 2% polypeptone, 1% yeast extract, and 2% glucose], and was subjected to aerobic shaking culture at 40° C. for 13 hours. Kluyveromyces marxianus grown under the above-described conditions was inoculated in 100 ml of the YPD-liquid medium so that the initial bacterial cell concentration OD610=0.05 was achieved. Simultaneously, 2-phenylethanol was added so that the final concentrations thereof became 0, 10, 20, 30, 40, and 50 mM, and aerobic shaking culture was carried out at 40° C. The growth of bacterial cells was determined by measuring the absorbance of OD610.

Q: For `OCCc1ccccc1` [2-phenylethanol], which “growth of Corynebacterium glutamicum” value ([1]; 20 mM 2-phenylethanol) is on record?
A: not influenced at all

Q: What about the “growth of Corynebacterium glutamicum” value ([1]; 30 mM 2-phenylethanol) of the same molecule?
A: delayed, but was improved 24 hours after

Q: What about the “growth of Escherichia coli” value (Escherichia coli MG1655; 20 mM 2-phenylethanol) of the same molecule?
A: significantly inhibited; also recorded: strongly inhibited

Q: What about the “growth of Escherichia coli” value (Escherichia coli MG1655; 30 mM 2-phenylethanol) of the same molecule?
A: substantially completely inhibited

Q: What about the “growth of Pseudomonas putida” value (Pseudomonas putida S12; 20 mM 2-phenylethanol) of the same molecule?
A: strongly inhibited

Q: What about the “growth of Pseudomonas putida” value (Pseudomonas putida S12; 30 mM 2-phenylethanol) of the same molecule?
A: substantially completely inhibited

Q: And the “growth of Kluyveromyces marxianus” value (Kluyveromyces marxianus; 20 mM 2-phenylethanol)?
A: strongly inhibited

Q: And the “growth of Kluyveromyces marxianus” value (Kluyveromyces marxianus; 30 mM 2-phenylethanol)?
A: substantially completely inhibited
